Experiment: xn = mol fraction of the nth substance listed
Conditions: 101 kPa

CCCC[n+]1ccn(C)c1.F[B-](F)(F)F + CC(O)CO
x2 = 0
Conditions | speed of sound [m/s]
303.15 K | 1552.9
318.15 K | 1518
323.15 K | 1506.6

CC(O)CO (stereo unspecified) + CCCC[n+]1ccn(C)c1.F[B-](F)(F)F
speed of sound [m/s]
Conditions | x1 = 0.1182 | x1 = 0.2003 | x1 = 0.3122 | x1 = 0.4189 | x1 = 0.5064 | x1 = 0.6165 | x1 = 0.695 | x1 = 0.797 | x1 = 0.8966 | x1 = 1
298.15 K | – | – | – | 1545.8 | 1541.1 | 1535.1 | 1530.5 | 1524.7 | 1518.5 | 1511
303.15 K | 1548.1 | 1544.1 | 1538.9 | – | 1529 | 1522.8 | – | 1511.8 | 1505.3 | 1497.2
308.15 K | – | 1532.3 | – | 1521.8 | 1516.9 | 1510.4 | 1505.3 | 1498.8 | 1491.8 | 1483.1
313.15 K | 1524.6 | 1520.6 | 1515.2 | 1509.8 | 1504.7 | – | 1492.6 | 1485.7 | – | 1469
318.15 K | 1513 | 1509 | – | 1497.9 | 1492.5 | 1485.5 | 1480 | 1472.7 | – | 1454.9
323.15 K | 1501.6 | 1497.4 | 1491.8 | 1486.1 | 1480.5 | – | 1467.3 | 1459.6 | 1451.4 | 1440.7

OCCCO + CCCC[n+]1ccn(C)c1.F[B-](F)(F)F
speed of sound [m/s]
Conditions | x1 = 0.1026 | x1 = 0.2072 | x1 = 0.3172 | x1 = 0.3943 | x1 = 0.503 | x1 = 0.6011 | x1 = 0.7009 | x1 = 0.8006 | x1 = 0.8979 | x1 = 1
298.15 K | 1564.2 | 1563.5 | 1565.2 | – | 1574.2 | 1580.8 | 1590 | – | 1612.8 | 1628.8
303.15 K | – | 1551.8 | 1553.4 | 1557.4 | 1562.4 | 1569 | 1578.2 | 1589.4 | 1601.1 | 1617.6
308.15 K | 1540.8 | 1539.9 | 1541.5 | 1545.5 | 1550.6 | 1557.2 | 1566.5 | 1577.8 | – | 1606.2
313.15 K | 1529.1 | 1528.2 | – | – | – | 1545.5 | 1554.8 | 1566.2 | 1578.1 | 1594.8
318.15 K | 1517.6 | 1516.6 | 1518.1 | 1522.1 | 1527.1 | – | – | 1554.6 | 1566.6 | 1583.5
323.15 K | 1506.2 | 1505.1 | 1506.5 | – | 1515.5 | 1522.2 | 1531.6 | 1543.1 | – | 1572.1

CCCC[n+]1ccn(C)c1.F[B-](F)(F)F + OCCCO
x2 = 0
Conditions | speed of sound [m/s]
298.15 K | 1565.1
303.15 K | 1553.2
308.15 K | 1541.3
313.15 K | 1529.7
318.15 K | 1518.2
323.15 K | 1506.8

Reference: a compilation of properties of binary mixtures (doi:10.1016/j.molliq.2015.01.031)
